Measured values: patent US8080377B2, “Method for confirming the exposure on chrysene” (Korea Institute of Science and Technology, priority 2008, dated 2011)

Test system: HepG2 cells
Experiment: 44 k whole human genome oligo microarray gene expression, cells treated with chrysene at IC20 for 48 hours (Cy5) vs untreated control (Cy3)
Type: cell-based
Experimental: HepG2 cells were distributed on a 100 mm dish at the concentration of 6×10^6 cell/ml, to which chrysene was treated for 48 hours at the concentration that was determined in Example <1-2>. Total RNA was extracted from the cells using trizol reagent (Invitrogen life technologies, USA) according to the manufacturer's instruction and the extracted RNA was purified by using RNeasy mini kit (Qiagen, USA). The genomic DNA was eliminated during the purification of RNA using RNase-free DNase set (Qiagen, USA). The total RNA was quantified by spectrophotometer and purity was measured by Agilent 2100 Bioanalyzer (Agilent Technologies, USA) and agarose gel-electrophoration.
For oligo-microarray analysis, cDNA was synthesized using the total RNA extracted from the experimental group treated with chrysene obtained in Example <2-1>. 30 μg of the total RNA and 2 μg (1 μg/μl) of oligo (dT) primer were mixed, followed by reaction for 10 minutes at 65° C. Then, the reaction mixture was put in ice, followed by annealing. Reagents were mixed as shown in Table 1 for reverse transcription of the RNA.
The total RNA extracted from the control HepG2 cell line was labeled with Cy3-dUTP (green), while the RNA extracted from the experimental HepG2 cell line treated with chrysene was labeled with Cy5-dUTP (red). At this time, the two samples were mixed and purified by Microcon YM-30 column (Millipore, USA).
Hybridization and washing were performed according to the instruction of GeneoCheck Co., Ltd. Hybridization was performed in a 62° C. oven for 12 hours. At this time, 44 k whole human genome oligo microarray (Agilent, USA) was used as a DNA microarray chip. After washing (with 2×SSC/0.1% SDS for 2 minutes, with 1×SSC for 3 minutes, with 0.2×SSC for 2 minutes), the slide was centrifuged at 800 rpm for 3 minutes and dried.
Scanning of the hybridized images on the slide was performed by using Genepix 4000B (Axon Instruments, USA). Fluorescence images of the chip washed to eliminate non-binding genes were obtained by laser fluorescence scanner. At this time, green fluorescent images indicated the activity of the gene expressed in the control, whereas red fluorescent images indicated the activity of the gene expressed specifically in the experimental group. […] The scanned images were analyzed by GenePix 4.1 software (Axon Instruments, USA) to calculate the gene expression rate. Based on the obtained data, marker genes for chrysene were selected (see FIG. 2).

`c1ccc2c(c1)ccc1c3ccccc3ccc21` [chrysene] was tested, and the “Ratio of intermediate value” (ACHE (NM_015831)) was 6.223, the “Ratio of intermediate value” (ADA (NM_000022)) was 5.213 and the “Ratio of intermediate value” (ADM (NM_001124)) was 2.186. For the same compound, the “Ratio of intermediate value” (ADORA2B (AK172851)) was 2.249, the “Ratio of intermediate value” (APOL2 (AF324224)) was 2.105 and the “Ratio of intermediate value” (APOL3 (NM_145641)) was 3.196. For the same compound, the “Ratio of intermediate value” (AXL (NM_021913)) was 3.268, the “Ratio of intermediate value” (B2M (NM_004048)) was 2.006 and the “Ratio of intermediate value” (BATF (BQ053419)) was 2.221. The “Ratio of intermediate value” (BTG3 (BC011957)) was 2.74, the “Ratio of intermediate value” (C1R (NM_001733)) was 2.893 and the “Ratio of intermediate value” (C1S (NM_001734)) was 3.018. For the same compound, the “Ratio of intermediate value” (C4A (NM_001002029)) was 2.002, the “Ratio of intermediate value” (C20orf139 (H18681)) was 4.383 and the “Ratio of intermediate value” (CCL3 (CR591007)) was 3.347. For the same compound, the “Ratio of intermediate value” (CCL3L1 (BF662985)) was 2.839, the “Ratio of intermediate value” (CCL14 (NM_004167)) was 5.103 and the “Ratio of intermediate value” (CCL20 (BC020698)) was 2.199. The “Ratio of intermediate value” (CCL23 (NM_005064)) was 2.761, the “Ratio of intermediate value” (CCND3 (AK096276)) was 2.292 and the “Ratio of intermediate value” (CD3D (NM_000732)) was 54.94. The “Ratio of intermediate value” (CD9 (NM_001769)) was 4.153, the “Ratio of intermediate value” (CD58 (NM_001779)) was 2.794 and the “Ratio of intermediate value” (CD79B (AK223210)) was 15.33. The “Ratio of intermediate value” (CDKN2B (NM_078487)) was 2.559, the “Ratio of intermediate value” (CSF1 (BC021117)) was 4.788 and the “Ratio of intermediate value” (CXCL12 (AK090482)) was 2.842. The “Ratio of intermediate value” (DDX58 (NM_014314)) was 2.333, the “Ratio of intermediate value” (DKFZp451C2311 (AL832451)) was 2.639 and the “Ratio of intermediate value” (DNAJA2 (AF116720)) was 10.94. The “Ratio of intermediate value” (DNAJB2 (BC040494)) was 2.053, the “Ratio of intermediate value” (DNAJB4 (AB209922)) was 2.872 and the “Ratio of intermediate value” (DUSP1 (AK127679)) was 2.383. For the same compound, the “Ratio of intermediate value” (DUSP13 (NM_001007271)) was 7.031, the “Ratio of intermediate value” (E2F7 (NM_203394)) was 3.647 and the “Ratio of intermediate value” (EBI3 (NM_005755)) was 5.607. For the same compound, the “Ratio of intermediate value” (ELF4 (NM_001421)) was 4.316, the “Ratio of intermediate value” (F2RL1 (NM_005242)) was 2.258 and the “Ratio of intermediate value” (F8 (NM_000132)) was 2.415. The “Ratio of intermediate value” (FAM14A (NM_032036)) was 2.706, the “Ratio of intermediate value” (FOS (BX647104)) was 2.287 and the “Ratio of intermediate value” (FOSL1 (NM_005438)) was 5.643. The “Ratio of intermediate value” (GPX1 (NM_201397)) was 2.85, the “Ratio of intermediate value” (GPX2 (BE512691)) was 2.014 and the “Ratio of intermediate value” (HLA-DOA (NM_002119)) was 4.209. For the same compound, the “Ratio of intermediate value” (HRAS (NM_005343)) was 2.3, the “Ratio of intermediate value” (HSPA4L (NM_014278)) was 4.71 and the “Ratio of intermediate value” (HSPA8 (NM_006597)) was 2.313. The “Ratio of intermediate value” (HSPCA (AJ890082)) was 2.544, the “Ratio of intermediate value” (ICOSLG (CB055213)) was 3.644 and the “Ratio of intermediate value” (IL4R (NM_000418)) was 2.254. For the same compound, the “Ratio of intermediate value” (IL11 (NM_000641)) was 4.521, the “Ratio of intermediate value” (ITCH (NM_031483)) was 2.301 and the “Ratio of intermediate value” (KLF6 (NM_001008490)) was 2.3. The “Ratio of intermediate value” (KLRC3 (NM_002260)) was 2.942, the “Ratio of intermediate value” (LIF (NM_002309)) was 8.088 and the “Ratio of intermediate value” (LY96 (BM918324)) was 5.439. For the same compound, the “Ratio of intermediate value” (MAPK11 (BC027933)) was 2.256, the “Ratio of intermediate value” (MAPK13 (AB209586)) was 2.326 and the “Ratio of intermediate value” (MBL2 (NM_000242)) was 2.755. The “Ratio of intermediate value” (MGC3207 (AL834276)) was 2.364, the “Ratio of intermediate value” (MR1 (AF031469)) was 7.059 and the “Ratio of intermediate value” (NALP6 (AY154461)) was 2.392. For the same compound, the “Ratio of intermediate value” (NFKBIA (NM_020529)) was 2.242, the “Ratio of intermediate value” (NINJ1 (NM_004148)) was 2.107 and the “Ratio of intermediate value” (NK4 (BF569086)) was 3.138. For the same compound, the “Ratio of intermediate value” (NR3C1 (U25029)) was 2.274, the “Ratio of intermediate value” (OAS1 (NM_016816)) was 3.711 and the “Ratio of intermediate value” (PAI, PAI1, PAI-1, PLANH1 (BX649164)) was 29.05. The “Ratio of intermediate value” (PARD6B (BC060847)) was 2.507, the “Ratio of intermediate value” (PARD6G (BC060797)) was 3.502 and the “Ratio of intermediate value” (PGF (NM_002632)) was 2.436. For the same compound, the “Ratio of intermediate value” (PPM1D (NM_003620)) was 3.647, the “Ratio of intermediate value” (PPP1R9B (BC008564)) was 3.169 and the “Ratio of intermediate value” (PRNP (NM_000311)) was 2.313. For the same compound, the “Ratio of intermediate value” (PROCR (NM_006404)) was 24.53, the “Ratio of intermediate value” (PTGES (AK127663)) was 3.184 and the “Ratio of intermediate value” (PTP4A1 (BC040303)) was 3.183. The “Ratio of intermediate value” (RAE1 (AK097024)) was 2.921, the “Ratio of intermediate value” (RPS6KA1 (BC014966)) was 2.11 and the “Ratio of intermediate value” (S100A6 (BM904612)) was 5.938. The “Ratio of intermediate value” (SAA4 (BG564326)) was 4.076, the “Ratio of intermediate value” (SASH1 (NM_015278)) was 2.368 and the “Ratio of intermediate value” (SEMA7A (AF069493)) was 2.531. The “Ratio of intermediate value” (SERTAD1 (AK074652)) was 4.835, the “Ratio of intermediate value” (SFN (BC023552)) was 2.525 and the “Ratio of intermediate value” (SGK2 (BC006523)) was 4.65. The “Ratio of intermediate value” (STAT1 (NM_007315)) was 2.268, the “Ratio of intermediate value” (TAP1 (BX648013)) was 4.08 and the “Ratio of intermediate value” (TAPBP (NM_172208)) was 7.02. For the same compound, the “Ratio of intermediate value” (TGFA (NM_003236)) was 2.487, the “Ratio of intermediate value” (TLR3 (BC068487)) was 2.541 and the “Ratio of intermediate value” (TMPRSS6 (NM_153609)) was 2.118. The “Ratio of intermediate value” (TP53I11 (BC045666)) was 6.008, the “Ratio of intermediate value” (TREM2 (NM_018965)) was 43.67 and the “Ratio of intermediate value” (TRIM22 (BC035582)) was 13.79. The “Ratio of intermediate value” (VWF (NM_000552)) was 2.476, the “Ratio of intermediate value” (XLKD1 (NM_006691)) was 10.06 and the “Ratio of intermediate value” (ZAP70 (AL832287)) was 3.83. The “Ratio of intermediate value” (ZCSL2 (AK092040)) was 2.303, the “genes identified to be down-regulated (2.0 fold less)” value (out of 44,000 genes) was 0.82% and the “genes identified to be up-regulated (2.0 fold higher)” value (out of 44,000 genes) was 0.73%. For the same compound, the “number of genes identified to be down-regulated” value (out of 44,000 genes) was 361 genes and the “number of genes identified to be up-regulated” value (out of 44,000 genes) was 323 genes.
